Results taken from patent US20240141294A1, “CGMP COMPLIANT PRODUCTION AND EXPANSION OF PLASMACYTOID DENDRITIC CELLS FROM HEMATOPOIETIC STEM AND PROGENITOR CELLS” (AARHUS UNIVERSITET, priority 2021, published 2024).

Test system: HSPC-pDCs
Assay: RNA-sequencing of HSPC-pDCs generated with or without ascorbic acid
Format: cell-based, human
Experimental: HSPCs were thawed and 1×10^5 cells were seeded in DC medium with or without supplementation of ascorbic acid (AA). Following 16 days of differentiation with or without AA in the medium, pDCs were isolated by immunomagnetic depletion of non-pDCs, and HSPCs-pDCs were then primed for 72 hours with IFN-β/γ. Following priming, HSPC-pDCs were stored in RNAprotect Cell Reagent (Qiagen) at −80° C. until total RNA was extracted using the RNeasy Plus Micro Kit (Qiagen), which efficiently eliminates genomic DNA without the need for DNase treatment. The total RNA was send to BGI Europe for RNA-seq. Here, a non-stranded & polyA-selected mRNA library was prepared from the total RNA and subjected to PE100 sequencing using the BGISEQ platform. The samples generated on average about 4.84 Gb bases per sample. Low quality reads were filtered and the remaining reads were mapped to the genome with an average mapping ratio with the reference genome at 92.74%, the average gene mapping ratio at 79.90%. In total, 18,412 genes were identified. Gene expression was calculated based on the reads, differentially expressed genes and gene ontology analyses were analyzed on BGI's software analysis platform Dr. Tom. HSPCs were thawed and 1×10^5 cells were seeded in DC medium with or without supplementation of ascorbic acid (AA). Following 16 days of differentiation with or without AA in the medium, pDCs were isolated by immunomagnetic depletion of non-pDCs, and HSPCs-pDCs were then primed for 72 hours with IFN-β/γ. Following priming, HSPC-pDCs were stored in RNAprotect Cell Reagent (Qiagen) at −80 degrees until total RNA was extracted using the RNeasy Plus Micro Kit (Qiagen), which efficiently eliminates genomic DNA without the need for DNase treatment. The total RNA was send to BGI Europe for RNA-seq. Here, a non-stranded & polyA-selected mRNA library was prepared from the total RNA and subjected to PE100 sequencing using the BGISEQ platform. The samples generated on average about 4.84 Gb bases per sample. Low quality reads were filtered and the remaining reads were mapped to the genome with an average mapping ratio with the reference genome at 92.74%, the average gene mapping ratio at 79.90%. In total, 18,412 genes were identified. Gene expression was calculated based on the reads, differentially expressed genes and gene ontology analyses were analyzed on BGI's software analysis platform Dr. Tom.

[1] = condition with AA, |log 2FC|>=1 and Qvalue <=0.05

SMILES: O=C1O[C@H]([C@@H](O)CO)C(O)=C1O [ascorbic acid]
- number of downregulated genes [1]: 334 genes
- number of upregulated genes [1]: 916 genes
- Log2 (+AA/−AA) (gene ADA2, Qvalue 2.90E−08): 0.759
- +AA FPKM (gene ADA2, −AA FPKM 117.7033): 197.7367 FPKM
- Log2 (+AA/−AA) (gene ALOX5AP, Qvalue 0.002016945): 0.793
- +AA FPKM (gene ALOX5AP, −AA FPKM 210): 364 FPKM
- Log2 (+AA/−AA) (gene ANXA2, Qvalue 9.39E−07): 1.658
- +AA FPKM (gene ANXA2, −AA FPKM 106): 333 FPKM
- Log2 (+AA/−AA) (gene APP, Qvalue 0.015253176): 0.696
- +AA FPKM (gene APP, −AA FPKM 133): 215 FPKM
- Log2 (+AA/−AA) (gene BRI3, Qvalue 0.00802755): 0.724
- +AA FPKM (gene BRI3, −AA FPKM 216): 358 FPKM
- Log2 (+AA/−AA) (gene C1QA, Qvalue 0.002254892): 1.342
- +AA FPKM (gene C1QA, −AA FPKM 91): 230 FPKM
- Log2 (+AA/−AA) (gene C1QB, Qvalue 0.011037205): 1.137
- +AA FPKM (gene C1QB, −AA FPKM 147): 323 FPKM
- Log2 (+AA/−AA) (gene C1QC, Qvalue 0.002547556): 1.551
- +AA FPKM (gene C1QC, −AA FPKM 126): 365 FPKM
- Log2 (+AA/−AA) (gene C1orf162, Qvalue 0.038404809): 0.529
- +AA FPKM (gene C1orf162, −AA FPKM 178): 256 FPKM
- Log2 (+AA/−AA) (gene CD68, Qvalue 3.20E−09): 1.365
- +AA FPKM (gene CD68, −AA FPKM 240): 619 FPKM
- Log2 (+AA/−AA) (gene CD74, Qvalue 3.24E−08): 0.841
- +AA FPKM (gene CD74, −AA FPKM 5008): 8923 FPKM
- Log2 (+AA/−AA) (gene CD81, Qvalue 0.002330558): 1.451
- +AA FPKM (gene CD81, −AA FPKM 85): 235 FPKM
- Log2 (+AA/−AA) (gene CHI3L1, Qvalue 0.024834793): 2.178
- +AA FPKM (gene CHI3L1, −AA FPKM 108): 496 FPKM
- Log2 (+AA/−AA) (gene CTSB, Qvalue 6.81E−09): 1.920
- +AA FPKM (gene CTSB, −AA FPKM 96): 363 FPKM
- Log2 (+AA/−AA) (gene CTSD, Qvalue 1.73E−06): 1.460
- +AA FPKM (gene CTSD, −AA FPKM 323): 893 FPKM
- Log2 (+AA/−AA) (gene CTSH, Qvalue 2.00E−04): 1.227
- +AA FPKM (gene CTSH, −AA FPKM 116): 271 FPKM
- Log2 (+AA/−AA) (gene CTSS, Qvalue 1.80E−04): 0.939
- +AA FPKM (gene CTSS, −AA FPKM 126): 242 FPKM
- Log2 (+AA/−AA) (gene CTSZ, Qvalue 3.93E−08): 1.002
- +AA FPKM (gene CTSZ, −AA FPKM 232): 462 FPKM
- Log2 (+AA/−AA) (gene CYBB, Qvalue 0.018453508): 0.807
- +AA FPKM (gene CYBB, −AA FPKM 184): 322 FPKM
- Log2 (+AA/−AA) (gene DEFA1, Qvalue 6.38E−05): 5.728
- +AA FPKM (gene DEFA1, −AA FPKM 20): 1047 FPKM
- Log2 (+AA/−AA) (gene DEFA3, Qvalue 0.001704486): 4.431
- +AA FPKM (gene DEFA3, −AA FPKM 27): 593 FPKM
- Log2 (+AA/−AA) (gene DEFA4, Qvalue 1.65E−08): 4.651
- +AA FPKM (gene DEFA4, −AA FPKM 39): 975 FPKM
- Log2 (+AA/−AA) (gene EVI2B, Qvalue 0.01888367): 0.294
- +AA FPKM (gene EVI2B, −AA FPKM 193): 236 FPKM
- Log2 (+AA/−AA) (gene FCER1G, Qvalue 0.033270138): 0.509
- +AA FPKM (gene FCER1G, −AA FPKM 961): 1367 FPKM
- Log2 (+AA/−AA) (gene FLNA, Qvalue 0.011692048): 0.372
- +AA FPKM (gene FLNA, −AA FPKM 160.4000): 206.4233 FPKM
- Log2 (+AA/−AA) (gene FTH1, Qvalue 0.00845252): 1.289
- +AA FPKM (gene FTH1, −AA FPKM 1395): 3417 FPKM
- Log2 (+AA/−AA) (gene GRINA, Qvalue 0.006989716): 0.718
- +AA FPKM (gene GRINA, −AA FPKM 130): 214 FPKM
- Log2 (+AA/−AA) (gene GRN, Qvalue 0.015829898): 0.695
- +AA FPKM (gene GRN, −AA FPKM 432): 696 FPKM
- Log2 (+AA/−AA) (gene HLA-DMB, Qvalue 0.022417743): 0.717
- +AA FPKM (gene HLA-DMB, −AA FPKM 188): 307 FPKM
- Log2 (+AA/−AA) (gene HLA-DPA1, Qvalue 6.34E−04): 0.763
- +AA FPKM (gene HLA-DPA1, −AA FPKM 1038): 1750 FPKM
- Log2 (+AA/−AA) (gene HLA-DPB1, Qvalue 0.003235049): 0.785
- +AA FPKM (gene HLA-DPB1, −AA FPKM 227): 388 FPKM
- Log2 (+AA/−AA) (gene HLA-DQA1, Qvalue 0.03140587): 1.374
- +AA FPKM (gene HLA-DQA1, −AA FPKM 161): 414 FPKM
- Log2 (+AA/−AA) (gene HLA-DRB1, Qvalue 1.76E−04): 1.122
- +AA FPKM (gene HLA-DRB1, −AA FPKM 1106): 2401 FPKM
- Log2 (+AA/−AA) (gene HLA-DRB3, Qvalue 0.018823029): 1.224
- +AA FPKM (gene HLA-DRB3, −AA FPKM 159): 365 FPKM
- Log2 (+AA/−AA) (gene IFI27, Qvalue 3.56E−04): 4.638
- +AA FPKM (gene IFI27, −AA FPKM 15): 377 FPKM
- Log2 (+AA/−AA) (gene IFITM3, Qvalue 6.61E−06): 1.496
- +AA FPKM (gene IFITM3, −AA FPKM 494): 1383 FPKM
- Log2 (+AA/−AA) (gene IL2RG, Qvalue 0.001778062): 0.785
- +AA FPKM (gene IL2RG, −AA FPKM 122): 209 FPKM
- Log2 (+AA/−AA) (gene ITGB2, Qvalue 9.28E−04): 0.599
- +AA FPKM (gene ITGB2, −AA FPKM 433): 654 FPKM
- Log2 (+AA/−AA) (gene LGALS3, Qvalue 5.07E−04): 1.667
- +AA FPKM (gene LGALS3, −AA FPKM 62.3833): 199.3967 FPKM
- Log2 (+AA/−AA) (gene LGALS3BP, Qvalue 5.08E−05): 1.001
- +AA FPKM (gene LGALS3BP, −AA FPKM 155): 310 FPKM
- Log2 (+AA/−AA) (gene MX1, Qvalue 0.026353098): 2.341
- +AA FPKM (gene MX1, −AA FPKM 42): 212 FPKM
- Log2 (+AA/−AA) (gene NCF1, Qvalue 0.015338721): 0.659
- +AA FPKM (gene NCF1, −AA FPKM 131): 207 FPKM
- Log2 (+AA/−AA) (gene PRDX1, Qvalue 0.009710824): 1.094
- +AA FPKM (gene PRDX1, −AA FPKM 106): 227 FPKM
- Log2 (+AA/−AA) (gene PSAP, Qvalue 7.31E−04): 0.802
- +AA FPKM (gene PSAP, −AA FPKM 600): 1044 FPKM
- Log2 (+AA/−AA) (gene RETN, Qvalue 0.035172121): 0.766
- +AA FPKM (gene RETN, −AA FPKM 244): 414 FPKM
- Log2 (+AA/−AA) (gene S100A11, Qvalue 0.024890893): 0.525
- +AA FPKM (gene S100A11, −AA FPKM 732): 1054 FPKM
- Log2 (+AA/−AA) (gene SERPING1, Qvalue 2.30E−05): 1.387
- +AA FPKM (gene SERPING1, −AA FPKM 181): 471 FPKM
- Log2 (+AA/−AA) (gene SOD2, Qvalue 0.017321675): 1.145
- +AA FPKM (gene SOD2, −AA FPKM 129): 301 FPKM
- Log2 (+AA/−AA) (gene TYMP, Qvalue 0.016368204): 0.679
- +AA FPKM (gene TYMP, −AA FPKM 348): 553 FPKM
- number of TLR7 and TLR9 pathway genes statistically significantly expressed (of 54 selected genes, AA in media during HSPC-pDC generation): 17 genes
